Laboratory results reported in patent US10030016B2 (Sunesis Pharmaceuticals, Inc., priority 2009, dated 2018).
Structures can show the parent of a compound that is named as a salt. Where two headings read alike, the source gives them in different places.

Key:
[1] = tested on: phospho-akt (Thr308) in PC-3 cells; test: Inhibition of phospho-akt (Thr308) in PC-3 cells, MSD phospho-akt 308 ELISA kit; format: cell-based; conditions: 2 hours, no serum, read-out: EC50
In short: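 PC-3 cells (15,000/well, overnight in 10% FBS medium) treated 2 h with three-fold diluted compounds in serum-free medium; DMSO high and 5 μM wortmannin low controls. Lysates captured on BSA-blocked MSD plates overnight at 4 °C, then 1 h antibody detection at RT; phospho-Akt Thr308 read by MSD electrochemiluminescence.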

PDK1 = PDK1 (Homo sapiens (Human), UniProt O15530); test: PDK1 kinase assay (coupled PDK1/AKT/FAM-crosstide assay, IMAP fluorescence polarization); format: biochemical
In short: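 Inhibition is derived by 4-parameter fitting of ΔmP from an IMAP fluorescence polarization read of FAM-crosstide (100 nM) phosphorylation. The cascade ran 30 min at 25 °C with 40 μM ATP, using insect-cell GST-PDK1 51-359 (0.75 nM) driving 10 nM unphosphorylated AKT2 140-467-PIFtide fusion.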

[2] = Homo sapiens, inhibition of P308 Akt in PC-3 cells, MSD
[3] = inhibition of phospo-PDK1 in vitro
[4] = Homo sapiens, inhibition of P308 Akt in PC-3 cells using MSD
[5] = Homo sapiens, PC-3, 2 h, inhibition of P308 Akt in PC-3 cells, MSD

Sequence of PDK1 (O15530 51-359): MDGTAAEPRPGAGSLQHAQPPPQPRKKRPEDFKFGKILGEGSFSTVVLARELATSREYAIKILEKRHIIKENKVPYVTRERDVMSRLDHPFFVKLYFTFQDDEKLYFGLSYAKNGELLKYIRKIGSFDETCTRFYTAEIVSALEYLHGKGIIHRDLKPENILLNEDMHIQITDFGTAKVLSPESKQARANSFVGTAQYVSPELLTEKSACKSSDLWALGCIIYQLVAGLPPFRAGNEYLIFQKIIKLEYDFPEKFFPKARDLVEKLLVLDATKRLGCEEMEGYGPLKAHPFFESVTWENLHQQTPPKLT

| Structure (SMILES) | EC50 [1, 2] | IC50 (PDK1; [3]) | EC50 [1, 4] | IC50 (PDK1; inhibition of PDK1 in vitro) | also measured |
| --- | --- | --- | --- | --- | --- |
| CC(C)[C@H](NC(=O)c1cccnc1NCc1ccc(-c2ccc3ncnc(N)c3c2)s1)c1cccc(F)c1 [Example 3.44, (S)-2-((5-(4-aminoquinazolin-6-yl)thiophen-2-yl)methylamino)-N-(1-(3-fluorophenyl)-2-methylpropyl)nicotinamide (TFA salt)] | 1000 to 10000 nM | 100 to 1000 nM |  |  |  |
| Nc1ncnc2ccc(-c3ccc(CNc4ncccc4C(=O)NCc4ccc(F)cc4)s3)cc12 [Example 3.7, 2-({[5-(4-aminoquinazolin-6-yl)thiophen-2-yl]methyl}amino)-N-(4-fluorobenzyl)pyridine-3-carboxamide (TFA salt)] | < 1000 nM | < 100 nM |  |  |  |
| Nc1ncnc2ccc(-c3ccc(CNc4nccnc4C(=O)NCc4ccc(F)cc4)s3)cc12 [Example 3.68, 3-({[5-(4-aminoquinazolin-6-yl)thiophen-2-yl]methyl}amino)-N-(4-fluorobenzyl) pyrazine-2-carboxamide (TFA salt)] | 1000 to 10000 nM | < 100 nM |  |  |  |
| C[C@H](NC(=O)c1cc(I)cnc1NCc1ccc(-c2ccc3ncnc(N)c3c2)s1)c1ccc(F)cc1 [Example 7.21.2, 2-({[5-(4-aminoquinazolin-6-yl)thiophen-2-yl]methyl}amino)-N-[(1S)-1-(4-fluorophenyl)ethyl]-5-iodopyridine-3-carboxamide] | < 1000 nM | 100 to 1000 nM |  |  |  |
| C[C@H](NC(=O)c1cccnc1NCc1ccc(-c2ccc3ncnn3c2)s1)c1ccc(F)cc1 [Example 2.4, N-[(1S)-1-(4-fluorophenyl)ethyl]-2-({[5-([1,2,4]triazolo[1,5-a]pyridin-6-yl)thiophen-2-yl]methyl}amino)pyridine-3-carboxamide] | > 10000 nM | 1000 to 5000 nM |  |  |  |
| Cn1c(-c2ccc(CNc3ncc(C(F)(F)F)cc3C(=O)Nc3ccc(F)cc3)cc2)cc2c(N)ncnc21 [Example 337, 2-(4-(4-amino-7-methyl-7H-pyrrolo[2,3-d]pyrimidin-6-yl)-benzylamino)-N-(4-fluorophenyl)-5-(trifluoromethyl)nicotinamide] |  |  | 1000 to 10000 nM | < 100 nM |  |
| C[C@@H](Nc1ncc(C(F)(F)F)cc1C(=O)Nc1ccc(F)cc1)c1ccc(-c2c[nH]c3ncnc(N)c23)cc1 [Example 433, 2-{(R)-1-[4-(4-Amino-7H-pyrrolo[2,3-d]pyrimidin-5-yl)-phenyl]-ethylamino}-N-(4-fluoro-phenyl)-5-trifluoromethyl-nicotinamide] |  |  | 1000 to 10000 nM | < 100 nM |  |
| C[C@H](NC(=O)c1nc(C#N)cnc1NCc1ccc(-c2cnc(N)cn2)cc1)c1ccc(F)c(F)c1 [Example 376, (S)-3-(4-(5-aminopyrazin-2-yl)benzylamino)-6-cyano-N-(1-(3,4-difluorophenyl)ethyl)pyrazine-2-carboxamide] |  |  | < 1000 nM | < 100 nM |  |
| CNC(=O)c1ncnc2ccc(-c3ccc(CNc4ncccc4C(=O)N[C@@H](C)c4ccc(F)c(F)c4)s3)cc12 [Example 4.25, (S)-6-(5-((3-(1-(3,4-difluorophenyl)ethyl-carbamoyl)pyridin-2-ylamino)methyl)thiophen-2-yl)-N-methylquinazoline-4-carboxamide] | > 10000 nM | > 5000 nM |  |  |  |
| C[C@H](NC(=O)c1cc(C#N)cnc1NCc1ccc(-c2n[nH]c3ncnc(N)c23)cc1)c1ccc(F)cc1 [Example 96, 2-[4-(4-Amino-1H-pyrazolo [3,4-d]pyrimidin-3-yl)-benzylamino]-5-cyano-N-[(S)-1-(4-fluoro-phenyl)-ethyl]-nicotinamide] |  |  | 1000 to 10000 nM | < 100 nM |  |
| C[C@H](NC(=O)c1cccnc1NCc1ccc(-c2ccc3ncnc(N)c3c2)s1)c1cccc(F)c1 [Example 3.21, 2-({[5-(4-aminoquinazolin-6-yl)thiophen-2-yl]methyl}amino)-N-[(1S)-1-(3-fluorophenyl)ethyl]pyridine-3-carboxamide (TFA salt)] | 1000 to 10000 nM | < 100 nM |  |  |  |
| Nc1ncc(-c2ccc(CNc3ncc(C(F)(F)F)cc3C(=O)Nc3ccc(F)cc3)cc2)nc1CC1CCNC1 (stereo not shown) [Example 186, 2-[4-(5-Amino-6-pyrrolidin-3-ylmethyl-pyrazin-2-yl)-benzylamino]-N-(4-fluoro-phenyl)-5-trifluoromethyl-nicotinamide] |  |  | < 1000 nM | < 100 nM |  |
| Nc1ncnc2ccc(-c3nc(CNc4ncccc4C(=O)NCc4ccc(F)c(F)c4)cs3)cc12 [Ex. 6.8, 2-({[2-(4-aminoquinazolin-6-yl)-1,3-thiazol-4-yl]methyl}amino)-N-(3,4-difluoro-benzyl) pyridine-3-carboxamide] | > 10000 nM | < 100 nM |  |  |  |
| C[C@H](NC(=O)c1cccnc1N[C@@H](COc1ccc2c(c1)[nH]c(=O)n2C)c1ccccc1)c1ccc(F)c(F)c1 [Example 16.13, N—((S)-1-(3,4-difluorophenyl)ethyl)-2-((R)-2-(1-methyl-2-oxo-2,3-dihydro-1H-benzo[d]imidazol-5-yloxy)-1-phenylethylamino)nicotinamide] | 1000 to 10000 nM | < 100 nM |  |  |  |
| CCC(C)n1cc(-c2ccc(CNc3ncc(C(F)(F)F)cc3C(=O)Nc3ccc(F)cc3)cc2)c2c(N)ncnc21 (stereo not shown) [Example 441, 2-(4-(4-amino-7-sec-butyl-7H-pyrrolo[2,3-d]pyrimidin-5-yl)benzylamino)-N-(4-fluorophenyl)-5-(trifluoromethyl)nicotinamide] |  | < 100 nM | > 10000 nM |  |  |
| C[C@H](NC(=O)c1nc(C#N)cnc1NCc1ccc(-c2cnc3[nH]nc(N)c3c2)nc1)c1ccc(F)c(F)c1 [Example 58, (S)-3-(((6-(3-amino-1H-pyrazolo[3,4-b]pyridin-5-yl)pyridin-3-yl)methyl)amino)-6-cyano-N-(1-(3,4-difluorophenyl)ethyl) pyrazine-2-carboxamide] |  |  | < 1000 nM | < 100 nM |  |
| CC(C)Oc1cc(CNc2ncccc2C(=O)NCc2ccc(F)c(F)c2)cc(-c2ccc3ncccc3c2)c1 [Example 5.4, N-(3,4-difluorobenzyl)-2-(3-isopropoxy-5-(quinolin-6-yl)benzylamino) nicotinamide] |  | 1000 to 5000 nM |  |  | EC50 [1, 5]: > 10000 nM |
| Nc1ncnc2ccc(-c3ccc(CNc4ncc(Br)nc4C(=O)NCc4ccc(F)c(F)c4)s3)cc12 [Ex. 10.2, 3-({[5-(4-aminoquinazolin-6-yl)thiophen-2-yl]methyl}amino)-6-bromo-N-(3,4-difluorobenzyl)pyrazine-2-carboxamide] | 1000 to 10000 nM | < 100 nM |  |  |  |
| Cc1ncc(CNC(=O)c2cccnc2NCc2ccc(-c3ccc4ncnc(N)c4c3)s2)cc1F [Example 3.67, 2-(((5-(4-aminoquinazolin-6-yl)thiophen-2-yl)methyl)amino)-N-((5-fluoro-6-methylpyridin-3-yl)methyl)nicotinamide (TFA salt)] |  | 1000 to 5000 nM |  |  | EC50 [1, 5]: > 10000 nM |
| NCCNc1n[nH]c2ncc(-c3ccc(CNc4ncc(C(F)(F)F)cc4C(=O)NCc4ccc(F)c(F)c4)cc3)cc12 [Example 153, 2-(4-(3-(2-amino-ethylamino)-1H-pyrazolo [3,4-b]pyridin-5-yl)benzylamino)-N-(3,4-difluorobenzyl)-5-(trifluoromethyl) nicotinamide] |  |  | 1000 to 10000 nM | < 100 nM |  |
| N#Cc1cnc(N[C@@H](COc2ccc3[nH]c(=O)[nH]c3c2)c2ccccc2)c(C(=O)NCc2ccc(F)cc2)n1 [Example 16.12, (R)-6-cyano-N-(4-fluorobenzyl)-3-(2-(2-oxo-2,3-dihydro-1H-benzo[d]imidazol-5-yloxy)-1-phenylethylamino) pyrazine-2-carboxamide] | < 1000 nM | < 100 nM |  |  |  |
| C[C@H](NC(=O)c1cc(C#N)cnc1NCc1ccc(-c2cnc(N)c(C(=O)NCC(O)CO)n2)cc1)c1ccc(F)cc1 (stereo partly drawn) [Example 347, 3-amino-6-(4-((5-cyano-3-((S)-1-(4-fluorophenyl)ethylcarbamoyl)pyridin-2-ylamino)methyl)phenyl)-N-(2,3-dihydroxypropyl) pyrazine-2-carboxamide] |  |  |  | < 100 nM | EC50 ([1]; inhibition of P308 Akt in PC-3 cells using MSD): < 1000 nM |
| C[C@H](NC(=O)c1cccnc1NCc1ccc(-c2ccc3ncnc(N)c3c2)s1)c1ccccn1 [Example 3.58, (S)-2-(((5-(4-aminoquinazolin-6-yl)thiophen-2-yl)methyl)amino)-N-(1-(pyridin-2-yl)ethyl) nicotinamide (TFA salt)] |  | 100 to 1000 nM |  |  | EC50 [1, 5]: 1000 to 10000 nM |
| N#Cc1cnc(NCc2ccc(-c3cnc4[nH]c(=O)[nH]c4c3)cc2)c(C(=O)NCc2ccc(F)cc2)c1 [Example 358, 5-cyano-N-(4-fluorobenzyl)-2-(4-(2-oxo-2,3-dihydro-1H-imidazo[4,5-b]pyridin-6-yl)benzylamino)nicotinamide] |  |  | < 1000 nM | < 100 nM |  |
| CCCc1cnc(NCc2ccc(-c3ccc4ncnc(N)c4c3)s2)c(C(=O)NCc2ccc(F)c(F)c2)n1 [Ex. 10.7, 3-({[5-(4-aminoquinazolin-6-yl)thiophen-2-yl]methyl}amino)-N-(3,4-difluorobenzyl)-6-propylpyrazine-2-carboxamide] | 1000 to 10000 nM | 1000 to 5000 nM |  |  |  |
| Nc1ncnc2ccc(-c3ccc(CNc4ncccc4C(=O)NCc4cncnc4)s3)cc12 [Example 3.57, 2-({[5-(4-aminoquinazolin-6-yl)thiophen-2-yl]methyl}amino)-N-(pyrimidin-5-ylmethyl) pyridine-3-carboxamide (TFA salt)] | 1000 to 10000 nM | 1000 to 5000 nM |  |  |  |
